From patent publication US7888040B2, “Detection of methamphetamine group drugs” (priority 2004, dated 2011)

Tests used:
[1] = test system: monoclonal anti-methamphetamine antibody; test: Competitive inhibition ELISA (CELIA) on BSA-pseudoephedrine coated wells; type: binding, mouse; settings: for Detection by the competitive ELISA (in words): summary of Table 1
Procedure: The conjugate was evaluated using ELISA. 96-well microtitre plates (Costar) were coated with BSA-pseudoephedrine (5 :g/ml in 0.05 M sodium carbonate/bicarbonate buffer, pH 9.6, 100 :l/well) overnight at room temperature. […] Two fold dilutions of monoclonal anti-methamphetamine antibody (East coast Biological, USA) in wash buffer containing 10 mg/ml BSA (assay buffer) were added to the wells (100 :l/well) and the plate incubated at room temperature for 30 minutes. The wells were washed 3 times with wash buffer and horseradish peroxidase-labelled goat anti-mouse IgG antibody (product number A-4416, Sigma Co., Poole, England) was added to the wells (1/2000 dilution in assay buffer, 100 :l/well) and incubation continued for a further 30 minutes. […] After 30 minutes incubation, colour development was stopped by the addition of 1 M sulphuric acid (100 :l/well). Colour intensity was measured at 450 nm.
Competitive ELISA was then set up to evaluate the cross-reactivity of various drugs with methamphetamine. […] The designer ecstasy drugs MDMA and MBDB were well detected by this assay.

[2] = test system: gold-labelled mouse anti-methamphetamine antibody; test: Lateral flow immunochromatography test for methamphetamine/ecstasy in spiked oral fluid; settings: for Lateral flow test result: cut off set at ≧15 ng/ml (+)-methamphetamine; for Lateral flow test result (in words): Table 2, at the concentrations tested
[3] = compound at 10,000 ng/ml, read off (+)-methamphetamine or ecstasy standard curve
[4] = compound at 10,000 ng/ml in spiked saliva
[5] = compound at 15 ng/ml in spiked saliva, Cozart Rapiscan reader

Molecule | % Cross-reactivity ([1]; compound at 10,000 ng/ml) | Concentration determined by ELISA [1, 3] | Lateral flow test result [2, 4] | other results
CC(N)C(O)c1ccccc1 (stereo not drawn) [phenylpropanolamine] | 0.06% | 5.8 ng/mL | negative | 
CN(C)CCC(c1ccccc1)c1ccccn1 (stereo not drawn) [Pheniramine] |  |  | negative | 
CN(C)CCC(c1ccc(Cl)cc1)c1ccccn1 (stereo not drawn) [Chlorpheniramine] |  |  | negative | 
CC(N)Cc1ccccc1 (single isomer, unassigned; (+)) [(+)-amphetamine] | 0.379% | 37.97 ng/mL | negative | % Cross-reactivity ([1]; compound at 10,000 ng/ml, listed as amphetamine): < 0.4%
CNC1(c2ccccc2Cl)CCCCC1=O (stereo not drawn) [Ketamine] |  |  | negative | 
(+)-methamphetamine [(+)- methylamphetamine] |  |  |  | Lateral flow test result (in words) [2]: picked up; Lateral flow test result [2, 5]: positive
CNC(C)Cc1ccc2c(c1)OCO2 (stereo not drawn) [MDMA (Ecstasy), 3,4-methylenedioxymethamphetamine] |  |  |  | % Cross-reactivity ([1]; compound at 15 ng/ml): 55.0%; Concentration determined by ELISA ([1]; compound at 15 ng/ml): 8.26 ng/mL; % Cross-reactivity ([1]; compound at 50 ng/ml): 48.1%; Concentration determined by ELISA ([1]; compound at 50 ng/ml): 24.09 ng/mL; % Cross-reactivity ([1]; compound at 100 ng/ml): 53.19%; Concentration determined by ELISA ([1]; compound at 100 ng/ml): 53.19 ng/mL; Detection by the competitive ELISA (in words) [1]: well detected; Lateral flow test result (in words) [2]: picked up; Lateral flow test result ([2]; compound at 30 ng/ml in spiked saliva): positive
CCNC(C)Cc1cccc(C(F)(F)F)c1 (stereo not drawn) [Fenfluramine] |  |  | negative | 
NCCc1ccc(O)cc1 [tyramine, 4-hydroxy-phenethylamine] | 0.03% | 3.72 ng/mL | negative | 
CC(N)Cc1ccc2c(c1)OCO2 (stereo not drawn) [MDA, 3,4-methylenedioxyamphetamine] | 0.219% | 21.94 ng/mL | negative | 
(−)-pseudoephedrine | 0.048% | 4.84 ng/mL | negative | 
NCCc1ccccc1 [beta-phenylethylamine] | 0.25% | 25.6 ng/mL | negative | 
CC(C)(N)Cc1ccccc1 [phentermine] |  |  |  | % Cross-reactivity ([1]; compound at 50,000 ng/ml): 0.009%; Concentration determined by ELISA ([1]; compound at 50,000 ng/ml): 4.67 ng/mL
CCC(Cc1ccc2c(c1)OCO2)NC (racemic) [MBDB, (+/−)-N-methyl-1-(3,4-methylenedioxyphenyl)-2-butanamine] |  |  |  | % Cross-reactivity ([1]; compound at 25 ng/ml): 75.04%; Concentration determined by ELISA ([1]; compound at 25 ng/ml): 18.76 ng/mL; % Cross-reactivity ([1]; compound at 100 ng/ml): 66.43%; Concentration determined by ELISA ([1]; compound at 100 ng/ml): 66.43 ng/mL; % Cross-reactivity ([1]; compound at 500 ng/ml): 87.78%; Concentration determined by ELISA ([1]; compound at 500 ng/ml): 438.88 ng/mL; Detection by the competitive ELISA (in words) [1]: well detected; Lateral flow test result (in words) [2]: picked up; Lateral flow test result [2, 5]: positive
CN[C@@H](C)[C@H](O)c1ccccc1 [(−)-ephedrine] | 0.05% | 5.05 ng/mL | negative | 
CN[C@H](C)[C@@H](O)c1ccccc1 [(+)-ephedrine] | 0.08% | 8.37 ng/mL | negative | 
(+)-pseudoephedrine | 0.063% | 6.3 ng/mL | negative | 
